Columns and labels:
Liver microsomes = experiment: Intrinsic clearance in human liver microsomes; format: ADME, Microsome
[1] = Clearance in rat blood at 0.5 mg/kg, iv and 1 mg/kg, po; format: ADME, organism-based; conditions: whole blood
[2] = Volume of distribution at steady state in rat at 0.5 mg/kg, iv and 1 mg/kg, po; format: ADME, organism-based; conditions: in vivo, read-out: Vdss
[3] = Half life in rat at 0.5 mg/kg, iv and 1 mg/kg, po; format: ADME, organism-based; conditions: in vivo
[4] = Oral bioavailability in rat 1 mg/kg; format: ADME, organism-based; conditions: in vivo
[5] = Ratio of drug level in rat brain to plasma at 0.5 mg/kg, iv and 1 mg/kg, po; format: ADME, organism-based

Row | Structure (SMILES) | CL (Liver microsomes) [mL/min/g] | clearance [1] [mL/min/kg] | Vd [2] [L/kg] | half-life [3] [h] | bioavailability [4] [%] | Kp [5]
1 | Cc1ccc2c(N3CCN(CCc4cccc5c4OCC(=O)N5C)CC3)cc(F)cc2n1 | 3.2 | 21 | 2.1 | 1.4 | 41 | 1.1
2 | Cc1ccc2c(N3CCN(CCc4ccc5c(c4)NC(=O)CO5)CC3)cccc2n1 | < 0.5 |  | 2 |  |  | 
3 | Cc1ccc2c(N3CCN(CCc4cccc5c4OCC(=O)N5C)[C@@H](C)C3)cccc2n1 | 3.5 | 44 | 1.9 | 0.8 | 31 | 1.9
4 | Cc1ccc2c(N3CCN(CCc4cccc5c4OCC(=O)N5)CC3)cccc2n1 | 1 | 8 | 3.4 | 5.2 | 63 | 
5 | Cc1ccc2c(N3CCN(CCc4ccc5c(c4)N(C)C(=O)CO5)CC3)cccc2n1 | 1.1 |  | 2.7 |  |  | 

The remaining lines, values ahead:

Row | CL (Liver microsomes) [mL/min/g] | clearance [1] [mL/min/kg] | Vd [2] [L/kg] | half-life [3] [h] | bioavailability [4] [%] | Kp [5] | Structure (SMILES)
6 | 2.4 | 29 | 1.7 | 1 | 26 |  | Cc1ccc2c(N3CCN(CCc4cccc5c4OCC(=O)N5C)CC3)cccc2n1
7 | 2.1 | 55 | 5.2 | 1.5 |  | 2.9 | Cc1ccc2c(N3CCN(CCCc4cccc5c4OCC(=O)N5C)CC3)cccc2n1
